Measured values as given in patent publication US5495005A, “Synthesis and pharmacological activity of a series of novel xanthone derivatives” (National Science Council, priority 1993, dated 1996).
pIC50: −log10 of the molar value.

How the values were obtained:
[1] = system: rabbit platelet; experiment: collagen-induced aggregation of washed rabbit platelets (turbidimetry); format: cell-based; details: comparison with norathyrol
Description: It is known that ADP, arachidonic acid, PAF and collagen treatment will lead to the aggregation of rabbit platelet. […] Using 10 μg/ml of collagen as inducer of platelet aggregation, tile replacement of the methoxy or hydroxy group on the C-3 by the 3-propylamino-2-hydroxypropoxyl group increases the inhibitory effect on platelet aggregation. The reaction mechanisms of 1,3,6,7,-tetraoxygenated xanthones and 3,4-dihydroxygenated xanthone inhibit the formation of A2 -thromboxane and the degradation of phosphoinositide, and inhibit the activity of A2 -thromboxane, respectively.
Based on the method of Teng et. al. (Ouyang, C. Biochem. Biophys. Acta. 1987, 924:375), rabbit platelets were washed with platelet-rich plasma which was adjusted with EDTA for anti-aggregation. Counted by Coulter Counter (model, ZM), the platelets were adjusted to a density of 4.5×10^8 platelets/ml by Tyrode's solution which contains 136.8 mM NaCl, 2.8 mM KCl, 1.0 mM CaCl2 and 11.2 mM glucose, and 0. 35% bovine serum albumin. Platelets were agitated at a speed of 1200 rpm to form a suspension. All xanthone derivatives tested were dissolved in DMSO. The concentration of DMSO was limited to 0.5% to prevent its interference to the aggregation reaction. The aggregation was assayed by O'Brin's turbidometer. To determine the degree of aggregation, the absorbance of platelet suspension was referred as 0% aggregation and that of the platelet […] was used for 100%. Lumiaggregometer (Chromo-Log Co. USA) was used to carry out the aggregation assay.

[2] = system: rat's thoracic aorta; experiment: contraction of rat's thoracic aorta induced by calcium/high potassium or norepinephrine
[3] = system: anesthetized rats; experiment: blood pressure and heart beat of anesthetized rats after i.v. injection; format: in vivo; details: for blood pressure of anesthetized rats: anesthetized rat
[4] = molecular target: angiotension I converting enzyme; experiment: inhibition of angiotension I converting enzyme; format: biochemical; details: read-out: IC50 toward angiotension I converting enzyme
angiotension I converting enzyme, sequence (P12821 30-1306): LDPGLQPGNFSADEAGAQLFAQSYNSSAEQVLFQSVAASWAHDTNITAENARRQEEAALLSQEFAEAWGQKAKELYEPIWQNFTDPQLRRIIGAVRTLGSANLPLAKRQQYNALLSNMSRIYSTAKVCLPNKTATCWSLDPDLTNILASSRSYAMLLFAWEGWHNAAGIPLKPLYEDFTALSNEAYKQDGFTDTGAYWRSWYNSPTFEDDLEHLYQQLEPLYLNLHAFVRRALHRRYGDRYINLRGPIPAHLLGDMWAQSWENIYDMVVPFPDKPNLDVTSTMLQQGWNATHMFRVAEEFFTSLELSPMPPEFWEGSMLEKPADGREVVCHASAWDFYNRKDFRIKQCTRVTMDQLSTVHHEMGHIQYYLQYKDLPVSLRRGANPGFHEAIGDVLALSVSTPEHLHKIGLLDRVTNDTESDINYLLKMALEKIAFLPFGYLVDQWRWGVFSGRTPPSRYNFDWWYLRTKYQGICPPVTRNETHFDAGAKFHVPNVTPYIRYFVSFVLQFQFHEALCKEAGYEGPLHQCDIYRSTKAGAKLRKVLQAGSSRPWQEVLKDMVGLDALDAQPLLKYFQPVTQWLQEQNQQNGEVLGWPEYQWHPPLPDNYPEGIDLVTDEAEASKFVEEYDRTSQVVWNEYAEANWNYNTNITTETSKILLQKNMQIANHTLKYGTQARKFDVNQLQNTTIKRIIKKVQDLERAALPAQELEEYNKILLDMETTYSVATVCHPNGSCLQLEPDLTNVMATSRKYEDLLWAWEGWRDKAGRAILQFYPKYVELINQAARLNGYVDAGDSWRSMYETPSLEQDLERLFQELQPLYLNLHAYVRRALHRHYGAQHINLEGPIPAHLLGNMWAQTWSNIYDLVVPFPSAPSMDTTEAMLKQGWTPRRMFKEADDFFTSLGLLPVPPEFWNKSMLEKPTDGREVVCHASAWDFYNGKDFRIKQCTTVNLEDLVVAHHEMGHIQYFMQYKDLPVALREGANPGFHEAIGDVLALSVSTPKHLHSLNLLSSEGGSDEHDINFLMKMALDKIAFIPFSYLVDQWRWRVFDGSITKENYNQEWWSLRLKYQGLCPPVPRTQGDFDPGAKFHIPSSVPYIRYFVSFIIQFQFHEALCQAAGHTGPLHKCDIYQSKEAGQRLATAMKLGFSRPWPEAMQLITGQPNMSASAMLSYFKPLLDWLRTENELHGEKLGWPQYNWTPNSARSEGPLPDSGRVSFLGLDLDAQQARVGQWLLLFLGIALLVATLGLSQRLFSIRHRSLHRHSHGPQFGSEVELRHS

[5] = system: peripheral blood vessels; details: literature report; cited from earlier work
[6] = system: atrioventricular conduction; details: literature report; cited from earlier work
[7] = system: myocardiac cells; details: literature report; cited from earlier work
[8] = system: platelet; details: literature report; cited from earlier work

CC(=O)Oc1cc2oc3ccccc3c(=O)c2cc1OC(C)=O [2,3-dihydroxyxanthone diacetate, 2,3-Dihydroxyxanthone diacetate]
effect on inhibiting collagen-induced platelet aggregation, compared with norathyrol [1]: more significant effect on inhibiting collagen-induced platelet aggregation than norathyrol

O=c1c2ccccc2oc2cc(O)c(O)cc12 [2,3-dihydroxyxanthone, 2,3-Dihydroxyxanthone]
inhibition of muscle contraction in rat's thoracic aorta induced by calcium ion at high potassium ([2]; 100 μg/ml, 1.9 mM calcium ion, 80 mM potassium ion): significantly inhibit
inhibition of phasic or tonic muscle contraction induced by norepinephrine ([2]; 100 μg/ml, 3 mM norepinephrine): significantly inhibit
blood pressure of anesthetized rats [3]: significantly lowered the blood pressure

CC(=O)Oc1cc2oc3c(OC(C)=O)c(OC(C)=O)ccc3c(=O)c2cc1OC(C)=O [3 '4 '6 '7-Tetrahydroxyxanthone acetate]
effect on inhibiting collagen-induced platelet aggregation, compared with norathyrol [1]: more significant effect on inhibiting collagen-induced platelet aggregation than norathyrol

CCCNCC(O)COc1ccc2c(=O)c3ccccc3oc2c1 (stereo not drawn) [3 [3-(propylamino)-2-hydroxypropoxy]xanthone]
heart beat of the anesthetized rat [3]: slow down the heart beat
blood pressure of anesthetized rats [3]: significantly reduce the blood pressure

O=c1c2cc(O)c(O)cc2oc2c(O)c(O)ccc12 [3,4,6,7-tetrahydroxyxanthone, 3,4,6,7-Tetrahydroxyxanthone]
blood pressure of anesthetized rats [3]: reducing the blood pressure
pIC50 [4]: 4.45

O=c1c2ccccc2oc2cc(OCC(O)CNC3CCCCC3)ccc12 (stereo not drawn) [3-[3-(Cyclohexylamino)-2-hydroxypropoxy] xanthone]
effect on inhibiting collagen-induced platelet aggregation, compared with norathyrol [1]: more significant effect on inhibiting collagen-induced platelet aggregation than norathyrol

CC(C)NCC(O)COc1ccc2c(=O)c3ccccc3oc2c1 (stereo not drawn) [3[3-(Isopropylamino)-2-hydroxypropoxyl)] xanthone]
inhibition of contraction of rat's thoracic aorta induced by high potassium ([2]; 10^-4 M, potassium ion 100 mM): significantly inhibit the contraction
heart beat of the anesthetized rat [3]: slow down the heart beat
blood pressure of anesthetized rats [3]: significantly reduce the blood pressure

O=c1c2cc(O)c(O)cc2oc2cc(O)cc(O)c12 [norathyriol]
relaxation of peripheral blood vessels [5]: strongly relax the peripheral blood vessels
atrioventricular conduction of a rabbit [6]: significantly depress the atrioventricular conduction
inhibition of calcium influx in myocardiac cells [7]: inhibit the calcium influx

CC(=O)Oc1cc(OC(C)=O)c2c(=O)c3cc(OC(C)=O)c(OC(C)=O)cc3oc2c1 [norathyrol acetate]
inhibition on platelet aggregation [8]: strong inhibition on platelet aggregation

tripteroside acetate
inhibition on platelet aggregation [8]: strong inhibition on platelet aggregation
